# ChEMBL document CHEMBL4177690, “(E)-3-(3,4,5-Trimethoxyphenyl)-1-(pyridin-4-yl)prop-2-en-1-one, a heterocyclic chalcone is a potent and selective CYP1A1 inhibitor and cancer chemopreventive agent” (Bioorg Med Chem Lett, 2017)
# Assays:
# Cytochrome P450 1A1 [1] = molecular target: T1, Cytochrome P450 1A1 (Homo sapiens, UniProt P04798); assay: Inhibition of recombinant human CYP1A1 expressed in HEK293 cells assessed as reduction in benzo(a)pyrene-induced toxicity by measuring increase in B[a]P EC50 at 2 times IC50 by MTT assay; assay type: cell-based
# T1 sequence (P04798 whole entry): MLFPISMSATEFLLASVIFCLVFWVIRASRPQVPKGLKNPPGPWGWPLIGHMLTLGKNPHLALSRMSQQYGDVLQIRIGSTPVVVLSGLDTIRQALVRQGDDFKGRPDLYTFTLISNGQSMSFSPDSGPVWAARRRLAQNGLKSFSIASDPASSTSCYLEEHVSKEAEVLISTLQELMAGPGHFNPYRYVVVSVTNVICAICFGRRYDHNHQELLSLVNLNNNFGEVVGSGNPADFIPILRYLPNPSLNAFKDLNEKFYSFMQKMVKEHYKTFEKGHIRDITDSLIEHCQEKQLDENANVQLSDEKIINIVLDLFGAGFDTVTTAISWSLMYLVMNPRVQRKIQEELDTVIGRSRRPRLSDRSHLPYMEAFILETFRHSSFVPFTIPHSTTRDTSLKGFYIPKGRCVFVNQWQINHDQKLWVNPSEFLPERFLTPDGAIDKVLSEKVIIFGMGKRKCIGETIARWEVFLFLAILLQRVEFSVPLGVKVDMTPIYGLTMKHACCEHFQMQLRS
# Cytochrome P450 1B1 [2] = molecular target: T2, Cytochrome P450 1B1 (Homo sapiens, UniProt Q16678); assay: Inhibition of recombinant human CYP1B1 expressed in HEK293 cells assessed as potentiation of cisplatin-induced cytotoxicity by measuring reduction in cisplatin EC50 by MTT assay; assay type: cell-based
# T2 sequence (Q16678 whole entry): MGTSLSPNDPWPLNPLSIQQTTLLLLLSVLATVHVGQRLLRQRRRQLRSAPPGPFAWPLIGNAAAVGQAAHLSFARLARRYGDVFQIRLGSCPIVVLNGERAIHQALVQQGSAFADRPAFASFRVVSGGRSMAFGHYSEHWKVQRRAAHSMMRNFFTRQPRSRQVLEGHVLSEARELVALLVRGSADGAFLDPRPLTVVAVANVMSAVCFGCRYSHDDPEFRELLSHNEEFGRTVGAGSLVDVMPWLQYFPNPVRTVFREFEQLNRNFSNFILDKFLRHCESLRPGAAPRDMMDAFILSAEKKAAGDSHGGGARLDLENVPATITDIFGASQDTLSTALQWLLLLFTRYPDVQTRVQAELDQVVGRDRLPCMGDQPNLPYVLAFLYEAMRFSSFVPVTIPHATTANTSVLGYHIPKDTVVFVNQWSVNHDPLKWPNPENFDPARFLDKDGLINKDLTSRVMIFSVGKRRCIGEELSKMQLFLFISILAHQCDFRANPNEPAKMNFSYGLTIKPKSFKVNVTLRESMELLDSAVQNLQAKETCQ
# Cytochrome P450 2C9 [3] = molecular target: T3, Cytochrome P450 2C9 (Homo sapiens, UniProt P11712); assay: Inhibition of human CYP2C9 expressed in yeast microsomal membranes using 3-cyano-7-ethoxycoumarin as substrate measured after 10 mins by fluorescence assay; assay type: ADME, cell membranes, Microsomal Membrane
# T3 sequence (P11712 whole entry): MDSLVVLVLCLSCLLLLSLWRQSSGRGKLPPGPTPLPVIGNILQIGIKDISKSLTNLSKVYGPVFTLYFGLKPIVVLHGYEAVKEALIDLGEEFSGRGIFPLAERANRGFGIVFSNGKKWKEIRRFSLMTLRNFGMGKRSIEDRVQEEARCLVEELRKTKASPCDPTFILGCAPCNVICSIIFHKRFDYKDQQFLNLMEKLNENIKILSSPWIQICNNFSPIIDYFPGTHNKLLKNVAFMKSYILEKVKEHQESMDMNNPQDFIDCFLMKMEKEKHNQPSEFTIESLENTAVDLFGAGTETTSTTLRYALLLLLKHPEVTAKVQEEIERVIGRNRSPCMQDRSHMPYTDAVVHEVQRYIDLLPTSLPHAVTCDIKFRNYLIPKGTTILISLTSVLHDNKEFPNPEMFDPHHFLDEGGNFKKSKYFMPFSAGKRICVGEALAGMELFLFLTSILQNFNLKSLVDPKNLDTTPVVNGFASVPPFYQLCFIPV
# Cytochrome P450 1A2 [4] = molecular target: T4, Cytochrome P450 1A2 (Homo sapiens, UniProt P05177); assay: Inhibition of human CYP1A2 expressed in yeast microsomal membranes using 3-cyano-7-ethoxycoumarin as substrate measured after 10 mins by fluorescence assay; assay type: ADME, cell membranes, Microsomal Membrane
# T4 sequence (P05177 whole entry): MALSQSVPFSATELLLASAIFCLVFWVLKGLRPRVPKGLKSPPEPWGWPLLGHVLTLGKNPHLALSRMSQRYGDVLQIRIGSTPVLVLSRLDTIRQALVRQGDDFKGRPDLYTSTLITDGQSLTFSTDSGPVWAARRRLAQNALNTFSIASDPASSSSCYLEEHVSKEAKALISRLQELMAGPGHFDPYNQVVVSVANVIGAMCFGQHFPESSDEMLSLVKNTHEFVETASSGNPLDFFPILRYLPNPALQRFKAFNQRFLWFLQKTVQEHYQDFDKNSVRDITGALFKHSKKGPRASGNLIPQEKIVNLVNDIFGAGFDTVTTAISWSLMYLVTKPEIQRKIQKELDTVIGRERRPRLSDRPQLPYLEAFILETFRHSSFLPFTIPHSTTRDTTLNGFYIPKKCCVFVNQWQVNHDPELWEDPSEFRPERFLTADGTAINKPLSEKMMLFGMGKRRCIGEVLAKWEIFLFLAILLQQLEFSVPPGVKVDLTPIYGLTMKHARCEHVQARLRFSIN
# Homo sapiens [5] = species on record: Homo sapiens; assay: Selectivity ratio of IC50 for recombinant human CYP1B1 expressed in HEK293 cells to IC50 for recombinant human CYP1A1 expressed in HEK293 cells; assay type: cell-based
# Homo sapiens [6] = species on record: Homo sapiens; assay: Selectivity ratio of IC50 for recombinant human CYP1A2 expressed in HEK293 cells to IC50 for recombinant human CYP1A1 expressed in HEK293 cells; assay type: cell-based
# Cytochrome P450 2D6 [7] = molecular target: T5, Cytochrome P450 2D6 (Homo sapiens, UniProt P10635); assay: Inhibition of human CYP2D6 expressed in yeast microsomal membranes using 7-ethoxy-methyloxy-3-cyanocoumarin as substrate measured after 10 mins by fluorescence assay; assay type: ADME, cell membranes, Microsomal Membrane
# T5 sequence (P10635 whole entry): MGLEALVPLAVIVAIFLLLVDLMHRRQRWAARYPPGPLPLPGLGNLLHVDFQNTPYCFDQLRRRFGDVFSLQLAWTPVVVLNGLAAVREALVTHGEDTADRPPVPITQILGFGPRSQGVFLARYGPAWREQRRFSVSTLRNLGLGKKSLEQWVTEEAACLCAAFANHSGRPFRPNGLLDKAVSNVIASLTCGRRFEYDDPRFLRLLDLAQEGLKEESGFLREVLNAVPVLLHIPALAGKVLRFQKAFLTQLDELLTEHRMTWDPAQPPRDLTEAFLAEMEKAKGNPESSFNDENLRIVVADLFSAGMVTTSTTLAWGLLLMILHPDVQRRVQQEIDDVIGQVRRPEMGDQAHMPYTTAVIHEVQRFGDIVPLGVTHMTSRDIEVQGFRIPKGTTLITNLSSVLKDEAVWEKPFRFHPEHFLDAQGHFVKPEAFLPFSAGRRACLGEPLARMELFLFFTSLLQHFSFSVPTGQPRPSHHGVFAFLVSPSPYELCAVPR
# Cytochrome P450 2C9 [8] = molecular target: T3, Cytochrome P450 2C9; assay: Inhibition of recombinant human CYP2C9 expressed in HEK293 cells using 3-cyano-7-ethoxycoumarin as substrate pretreated for 30 mins followed by substrate addition measured for 60 mins by fluorescence assay; assay type: ADME
# Cytochrome P450 2C19 [9] = molecular target: T6, Cytochrome P450 2C19 (Homo sapiens, UniProt P33261); assay: Inhibition of recombinant human CYP2C19 expressed in HEK293 cells using 3-cyano-7-ethoxycoumarin as substrate pretreated for 30 mins followed by substrate addition measured for 60 mins by fluorescence assay; assay type: ADME
# T6 sequence (P33261 whole entry): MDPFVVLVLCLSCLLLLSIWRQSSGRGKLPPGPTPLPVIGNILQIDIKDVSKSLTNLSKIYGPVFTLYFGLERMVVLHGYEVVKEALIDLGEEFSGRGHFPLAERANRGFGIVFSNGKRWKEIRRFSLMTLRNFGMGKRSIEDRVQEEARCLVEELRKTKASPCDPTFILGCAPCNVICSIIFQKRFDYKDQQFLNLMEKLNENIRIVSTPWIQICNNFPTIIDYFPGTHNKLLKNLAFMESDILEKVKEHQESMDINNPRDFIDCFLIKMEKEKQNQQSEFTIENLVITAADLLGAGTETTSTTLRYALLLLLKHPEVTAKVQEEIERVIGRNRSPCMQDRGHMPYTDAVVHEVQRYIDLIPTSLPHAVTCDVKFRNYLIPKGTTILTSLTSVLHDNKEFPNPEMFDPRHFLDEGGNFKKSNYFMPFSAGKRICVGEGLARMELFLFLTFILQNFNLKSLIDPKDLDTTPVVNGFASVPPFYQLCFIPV
# Cytochrome P450 1A1 [10] = molecular target: T1, Cytochrome P450 1A1; assay: Inhibition of recombinant human CYP1A1 expressed in HEK293 cells using 7-ethoxyresorufin as substrate pretreated for 30 mins followed by substrate addition measured for 60 mins by fluorescence assay; assay type: cell-based
# Cytochrome P450 2C19 [11] = molecular target: T6, Cytochrome P450 2C19; assay: Inhibition of human CYP2C19 expressed in yeast microsomal membranes using 3-cyano-7-ethoxycoumarin as substrate measured after 10 mins by fluorescence assay; assay type: ADME, cell membranes, Microsomal Membrane
# Cytochrome P450 3A4 [12] = molecular target: T7, Cytochrome P450 3A4 (Homo sapiens, UniProt P08684); assay: Inhibition of human CYP3A4 expressed in yeast microsomal membranes using dibenzylfluorescein as substrate measured after 10 mins by fluorescence assay; assay type: ADME, cell membranes, Microsomal Membrane
# T7 sequence (P08684 whole entry, the tested form may be a part): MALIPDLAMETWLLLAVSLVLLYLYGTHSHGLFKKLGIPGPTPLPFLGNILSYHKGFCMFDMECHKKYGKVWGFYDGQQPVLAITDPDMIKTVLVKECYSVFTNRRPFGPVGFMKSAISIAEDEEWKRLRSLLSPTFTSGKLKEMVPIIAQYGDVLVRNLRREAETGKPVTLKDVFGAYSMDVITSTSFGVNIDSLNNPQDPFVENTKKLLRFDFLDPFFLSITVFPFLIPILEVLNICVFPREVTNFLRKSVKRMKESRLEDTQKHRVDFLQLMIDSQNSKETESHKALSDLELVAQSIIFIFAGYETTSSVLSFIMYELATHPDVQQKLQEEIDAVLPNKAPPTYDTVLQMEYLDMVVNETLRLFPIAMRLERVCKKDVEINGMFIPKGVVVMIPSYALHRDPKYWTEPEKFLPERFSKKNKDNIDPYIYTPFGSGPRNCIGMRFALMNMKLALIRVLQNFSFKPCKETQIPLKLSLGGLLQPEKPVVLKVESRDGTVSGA
# [13] = molecular target: T8, Aryl hydrocarbon receptor (Homo sapiens, UniProt P35869); assay: Antagonist activity at recombinant human eGFP-fused Ahr expressed in yeast cells co-expressing ARNT assessed as inhibition of benzo(a)pyrene-induced Ahr activation at 1 uM measured after 18 hrs by fluorescence assay; assay type: cell-based
# T8 sequence (P35869 whole entry): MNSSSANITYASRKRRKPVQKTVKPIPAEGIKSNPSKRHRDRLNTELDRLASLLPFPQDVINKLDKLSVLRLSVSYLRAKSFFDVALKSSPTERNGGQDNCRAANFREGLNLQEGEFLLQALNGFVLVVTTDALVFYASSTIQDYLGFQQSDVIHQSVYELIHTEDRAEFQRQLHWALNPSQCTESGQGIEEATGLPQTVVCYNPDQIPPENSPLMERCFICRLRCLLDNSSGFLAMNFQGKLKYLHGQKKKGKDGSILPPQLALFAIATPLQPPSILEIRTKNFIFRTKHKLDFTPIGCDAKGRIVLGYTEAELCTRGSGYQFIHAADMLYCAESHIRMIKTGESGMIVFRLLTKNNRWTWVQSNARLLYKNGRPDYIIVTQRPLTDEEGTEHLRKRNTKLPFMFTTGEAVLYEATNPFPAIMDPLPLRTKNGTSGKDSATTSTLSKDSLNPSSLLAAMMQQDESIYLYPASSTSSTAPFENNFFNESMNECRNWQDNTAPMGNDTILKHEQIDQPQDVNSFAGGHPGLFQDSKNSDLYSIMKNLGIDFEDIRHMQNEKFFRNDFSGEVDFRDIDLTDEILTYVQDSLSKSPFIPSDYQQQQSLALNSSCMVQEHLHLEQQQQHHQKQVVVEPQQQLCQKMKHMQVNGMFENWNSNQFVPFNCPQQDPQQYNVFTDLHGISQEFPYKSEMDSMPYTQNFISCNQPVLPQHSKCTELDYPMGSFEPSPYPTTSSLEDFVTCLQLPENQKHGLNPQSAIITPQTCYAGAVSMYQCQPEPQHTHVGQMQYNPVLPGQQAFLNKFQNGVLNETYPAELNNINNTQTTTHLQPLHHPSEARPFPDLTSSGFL
# Cytochrome P450 1B1 [14] = molecular target: T2, Cytochrome P450 1B1; assay: Inhibition of human CYP1B1 expressed in yeast microsomal membranes using 7-ethoxyresorufin as substrate measured after 10 mins by fluorescence assay; assay type: cell membranes
# Cytochrome P450 1B1 [15] = molecular target: T2, Cytochrome P450 1B1; assay: Inhibition of recombinant human CYP1B1 expressed in HEK293 cells using 7-ethoxyresorufin as substrate pretreated for 30 mins followed by substrate addition measured for 60 mins by fluorescence assay; assay type: cell-based
# Cytochrome P450 1A1 [16] = molecular target: T1, Cytochrome P450 1A1; assay: Inhibition of human CYP1A1 expressed in yeast microsomal membranes using 7-ethoxyresorufin as substrate measured after 10 mins by fluorescence assay; assay type: cell membranes
# Cytochrome P450 2D6 [17] = molecular target: T5, Cytochrome P450 2D6; assay: Inhibition of recombinant human CYP2D6 expressed in HEK293 cells using 7-ethoxy-methyloxy-3-cyanocoumarin as substrate pretreated for 30 mins followed by substrate addition measured for 60 mins by fluorescence assay; assay type: ADME, cell-based
# Cytochrome P450 1A2 [18] = molecular target: T4, Cytochrome P450 1A2; assay: Inhibition of recombinant human CYP1A2 expressed in HEK293 cells using 3-cyano-7-ethoxycoumarin as substrate pretreated for 30 mins followed by substrate addition measured for 60 mins by fluorescence assay; assay type: ADME
# Cytochrome P450 3A4 [19] = molecular target: T7, Cytochrome P450 3A4; assay: Inhibition of recombinant human CYP3A4 expressed in HEK293 cells using dibenzylfluorescein as substrate pretreated for 30 mins followed by substrate addition measured for 60 mins by fluorescence assay; assay type: ADME
IC50 (Cytochrome P450 2C9 [3]) [µM],IC50 (Cytochrome P450 1A2 [4]) [µM],IC50 (Cytochrome P450 2D6 [7]) [µM],IC50 (Cytochrome P450 2C9 [8]) [µM],IC50 (Cytochrome P450 2C19 [9]) [µM],IC50 (Cytochrome P450 1A1 [10]) [µM],IC50 (Cytochrome P450 2C19 [11]) [µM],IC50 (Cytochrome P450 3A4 [12]) [µM],inhibition (INH) [13],IC50 (Cytochrome P450 1B1 [14]) [µM],IC50 (Cytochrome P450 1B1 [15]) [µM],IC50 (Cytochrome P450 1A1 [16]) [µM],IC50 (Cytochrome P450 2D6 [17]) [µM],IC50 (Cytochrome P450 1A2 [18]) [µM],IC50 (Cytochrome P450 3A4 [19]) [µM],SMILES,inhibition (INH) (Cytochrome P450 1A1 [1]),inhibition (INH) (Cytochrome P450 1B1 [2]),Ratio IC50 (Homo sapiens [5]),Ratio IC50 (Homo sapiens [6])
–,–,–,–,–,–,–,–,–,–,–,–,–,–,–,O=c1cc(-c2ccccc2)oc2c1ccc1ccccc12 [ALPHA-NAPHTHOFLAVONE],Active,Active,–,–
> 20,0.78,15,> 10,> 10,0.065,> 20,> 20,Active,2.92,3.07,0.065,> 10,0.82,> 10,CCOc1cc(/C=C/C(=O)c2ccncc2)cc(OC)c1OCC,–,–,< 10,< 10
